Test results as given in patent US20230414599A1, “NICOTINAMIDE, NICOTINAMIDE PRECURSORS AND NICOTINAMIDE METABOLITES AND COMPOSITIONS THEREOF FOR REDUCING THE TIME TO RESOLUTION OF SYMPTOMS IN PATIENTS WITH COVID-19 AND OTHER VIRAL INFECTIONS” (CONARIS RESEARCH INSTITUTE AG, priority 2020, published 2023).
Read-outs that look alike come from different tables or passages of the source.

Test system: COVID-19
Settings: for Cough complaint scale, mean / Cough complaint scale, median / Change in cough complaint scale, mean / Change in cough complaint scale, median: n = 36; for Ability to perform normal activities, complaint scale 0-6, mean change / Ability to perform normal activities, complaint scale 0-6, median change: week 4 - baseline
[1] = baseline, BMI ≥30.0 or type 2 diabetes, n = 27
[2] = baseline, current or former smokers, n = 75
[3] = baseline, patients with cough and fever, n = 15
[4] = baseline, patients with cough, n = 106
[5] = baseline, patients with fever, n = 21
[6] = baseline, ≥1 risk factor for severe COVID-19, n = 117
[7] = patients with cough and taste loss, baseline
[8] = patients with cough and taste loss, week 2
[9] = patients with cough and taste loss, week 2 - baseline
[10] = patients with cough and taste loss, week 4
[11] = patients with cough and taste loss, week 6
[12] = patients with cough and taste loss, week 6 - baseline
[13] = patients with cough, fever and taste loss, n = 6, week 4 compared to baseline
[14] = patients with cough, fever and taste loss, n = 6, week 6 compared to baseline
[15] = patients with fever and taste loss, n = 8, week 4 compared to baseline
[16] = patients with fever and taste loss, n = 8, week 6 compared to baseline
[17] = week 2 - baseline, BMI ≥30.0 or type 2 diabetes, n = 27, 500 mg IR + 500 mg CICR-NAM daily
[18] = week 2, BMI ≥30.0 or type 2 diabetes, n = 27, 500 mg IR + 500 mg CICR-NAM daily
[19] = week 2, current or former smokers, n = 75, 500 mg IR + 500 mg CICR-NAM daily
[20] = week 2, patients with cough and fever, n = 15, 500 mg IR + 500 mg CICR-NAM daily
[21] = week 2, patients with cough, n = 106, 500 mg IR + 500 mg CICR-NAM daily
[22] = week 2, patients with fever, n = 21, 500 mg IR + 500 mg CICR-NAM daily
[23] = week 2, ≥1 risk factor for severe COVID-19, n = 117, 500 mg IR + 500 mg CICR-NAM daily
[24] = BMI ≥30.0 or type 2 diabetes, n = 27, 500 mg IR + 500 mg CICR-NAM daily
[25] = patients with cough and fever, n = 15, 500 mg IR + 500 mg CICR-NAM daily
[26] = patients with cough, n = 106, 500 mg IR + 500 mg CICR-NAM daily
[27] = patients with fever, n = 21, 500 mg IR + 500 mg CICR-NAM daily
[28] = week 4, BMI ≥30.0 or type 2 diabetes, n = 27, 500 mg IR + 500 mg CICR-NAM daily
[29] = week 4, current or former smokers, n = 75, 500 mg IR + 500 mg CICR-NAM daily

In the case of `NC(=O)c1cccnc1` [Nicotinamide, nicotinamide], the “Ability to perform normal activities, complaint scale 0-6, mean” value [1] is reported as 3.037, the “Ability to perform normal activities, complaint scale 0-6, median” value [1] is reported as 3.000 and the “Cough complaint scale 0-6, mean” value [1] is reported as 3.000. For the same compound, the “Cough complaint scale 0-6, median” value [1] was 3.000, the “Ability to perform normal activities, complaint scale 0-6, mean” value [2] was 3.373 and the “Ability to perform normal activities, complaint scale 0-6, median” value [2] was 4.000. The “Ability to perform normal activities, complaint scale 0-6, mean” value [3] was 4.000, the “Ability to perform normal activities, complaint scale 0-6, median” value [3] was 4.0 and the “Ability to perform normal activities, complaint scale 0-6, mean” value [4] was 2.915. The “Ability to perform normal activities, complaint scale 0-6, median” value [4] was 3.0, the “Ability to perform normal activities, complaint scale 0-6, mean” value [5] was 4.000 and the “Ability to perform normal activities, complaint scale 0-6, median” value [5] was 4.0. The “Ability to perform normal activities, complaint scale 0-6, mean” value [6] was 3.188, the “Ability to perform normal activities, complaint scale 0-6, median” value [6] was 3.0 and the “Cough complaint scale vs placebo (Table 7.1)” value (patients with cough and taste loss) was “significant difference found in favour of placebo”. For the same compound, the “Cough complaint scale, mean” value [7] was 2.194, the “Cough complaint scale, median” value [7] was 2.0 and the “Cough complaint scale, mean” value [8] was 0.917. For the same compound, the “Cough complaint scale, median” value [8] was 0.0, the “Change in cough complaint scale, mean” value [9] was −1.287 and the “Change in cough complaint scale, median” value [9] was −1.0. The “Cough complaint scale, mean” value [10] was 0.639, the “Cough complaint scale, median” value [10] was 0.0 and the “Cough complaint scale, mean” value [11] was 0.417. The “Cough complaint scale, median” value [11] was 0.0, the “Change in cough complaint scale, mean” value [12] was −1.778 and the “Change in cough complaint scale, median” value [12] was −2.0. For the same compound, the “Change in fatigue: constant, number of patients” value (“Change in fatigue: constant” below) [13] was 1, the “Change in fatigue: improved, %” value [13] was 83.33% and the “Change in fatigue: improved, number of patients” value [13] was 5. The “Change in fatigue: worse, %” value [13] was 0.00%, the “Change in fatigue: worse, number of patients” value [13] was 0 and the “Change in fatigue: constant” value [14] was 2. The “Change in fatigue: improved, %” value [14] was 66.67%, the “Change in fatigue: improved, number of patients” value [14] was 4 and the “Change in fatigue: worse, %” value [14] was 0.00%. The “Change in fatigue: worse, number of patients” value [14] was 0, the “Change in fatigue: constant” value [15] was 1 and the “Change in fatigue: improved, %” value [15] was 87.50%. For the same compound, the “Change in fatigue: improved, number of patients” value [15] was 7, the “Change in fatigue: worse, %” value [15] was 0.00% and the “Change in fatigue: worse, number of patients” value [15] was 0. The “Change in fatigue: constant” value [16] was 2, the “Change in fatigue: improved, %” value [16] was 75.00% and the “Change in fatigue: improved, number of patients” value [16] was 6. The “Change in fatigue: worse, %” value [16] was 0.00%, the “Change in fatigue: worse, number of patients” value [16] was 0 and the “Effect on the ability to perform normal activities, fatigue and reduced physical performance” value (patients with ≥1 risk factor for severe COVID-19, futility analysis) was “biologically and statistically significant positive effect”. The “Cough complaint scale 0-6, mean change” value [17] was −1.815, the “Cough complaint scale 0-6, median change” value [17] was −2.000 and the “Ability to perform normal activities, complaint scale 0-6, mean” value [18] was 1.556. The “Ability to perform normal activities, complaint scale 0-6, median” value [18] was 1.000, the “Cough complaint scale 0-6, mean” value [18] was 1.185 and the “Cough complaint scale 0-6, median” value [18] was 1.000. For the same compound, the “Ability to perform normal activities, complaint scale 0-6, mean” value [19] was 1.093, the “Ability to perform normal activities, complaint scale 0-6, median” value [19] was 0.000 and the “Presence of cough constant vs baseline, % of patients” value [19] was 60.00%. The “Presence of cough constant vs baseline, patients” value [19] was 45, the “Presence of cough improved vs baseline, % of patients” value [19] was 36.00% and the “Presence of cough improved vs baseline, patients” value [19] was 27. The “Presence of cough worse vs baseline, % of patients” value [19] was 4.00%, the “Presence of cough worse vs baseline, patients” value [19] was 3 and the “Ability to perform normal activities, complaint scale 0-6, mean” value [20] was 1.733. The “Ability to perform normal activities, complaint scale 0-6, median” value [20] was 2.0, the “Ability to perform normal activities, complaint scale 0-6, mean” value [21] was 1.226 and the “Ability to perform normal activities, complaint scale 0-6, median” value [21] was 1.0. For the same compound, the “Ability to perform normal activities, complaint scale 0-6, mean” value [22] was 1.381, the “Ability to perform normal activities, complaint scale 0-6, median” value [22] was 1.0 and the “Ability to perform normal activities, complaint scale 0-6, mean” value [23] was 1.299. For the same compound, the “Ability to perform normal activities, complaint scale 0-6, median” value [23] was 1.0, the “Fatigue constant vs baseline, % of patients” value [23] was 57.26% and the “Fatigue constant vs baseline, patients” value [23] was 67. The “Fatigue improved vs baseline, % of patients” value [23] was 40.17%, the “Fatigue improved vs baseline, patients” value [23] was 47 and the “Fatigue worse vs baseline, % of patients” value [23] was 2.56%. For the same compound, the “Fatigue worse vs baseline, patients” value [23] was 3, the “Ability to perform normal activities, complaint scale 0-6, mean change” value (from here on “Ability … mean change”) [24] was −1.667 and the “Ability to perform normal activities, complaint scale 0-6, median change” value (from here on “Ability … median change”) [24] was −2.000. The “Ability … mean change” value [25] was −2.800, the “Ability … median change” value [25] was −3.0 and the “Ability … mean change” value [26] was −2.179. The “Ability … median change” value [26] was −2.0, the “Ability … mean change” value [27] was −2.952 and the “Ability … median change” value [27] was −3.0. For the same compound, the “Ability to perform normal activities constant vs baseline, % of patients” value [28] was 14.81%, the “Ability to perform normal activities constant vs baseline, patients” value [28] was 4 and the “Ability to perform normal activities improved vs baseline, % of patients” value [28] was 74.07%. For the same compound, the “Ability to perform normal activities improved vs baseline, patients” value [28] was 20, the “Ability to perform normal activities worse vs baseline, % of patients” value [28] was 11.11% and the “Ability to perform normal activities worse vs baseline, patients” value [28] was 3. For the same compound, the “Ability to perform normal activities, complaint scale 0-6, mean” value [28] was 1.370, the “Ability to perform normal activities, complaint scale 0-6, median” value [28] was 1.000 and the “Cough complaint scale 0-6, mean” value [28] was 0.815. For the same compound, the “Cough complaint scale 0-6, median” value [28] was 0.000, the “Ability to perform normal activities constant vs baseline, % of patients” value [29] was 9.33% and the “Ability to perform normal activities constant vs baseline, patients” value [29] was 7. The “Ability to perform normal activities improved vs baseline, % of patients” value [29] was 84.00% and the “Ability to perform normal activities improved vs baseline, patients” value [29] was 63.
